From patent US20260097091A1, “ADMINISTRATION OF GLUTATHIONE TRISULFIDE TO AMELIORATE PERIPHERAL NEUROPATHY” (The General Hospital Corporation, priority 2022, published 2026)

What was measured:
[1] = tested on: Nrf2-dependent antioxidant signaling in DRG; assay: real-time qPCR of antioxidant genes in lumbar DRG; format: in vivo, mice; conditions: 2 hours after single 16 mg/kg paclitaxel i.p. with or without 50 mg/kg GSSSG oral
Method: Changes in gene expression in lumber dorsal root ganglions (DRG) induced by paclitaxel and GSSSG were examined with real-time qPCR after a single administration of paclitaxel with or without GSSSG. We simultaneously administered 16 mg/kg paclitaxel by intraperitoneal injection and 50 mg/kg GSSSG by oral gavage and examined the mRNA expression 2 hours later. Lumbar DRG were isolated from mice as described previously. Removed DRG were immersed in RNA later (Invitrogen, Cat No. AM7020) at 4° C. overnight. After retrieving from RNA later, they were stored at −80° C. DRGs were homogenized in TRIzol reagent (ThermoFisher Scientific, Cat No. 15596026) and mixed with chloroform. After centrifugation at 14000×g at 4° C. for 15 minutes, the transparent top layer was transferred to a new tube. The samples were mixed with 400 μl of isopropanol and incubated at −20° C. for 20 minutes. After centrifugation at 14000×g at 4° C. for 15 minutes, the pellets were collected, mixed with 70% ethanol, and centrifuged at 14000×g at 4° C. for 10 minutes. The pellets were dried for 10 minutes and incubated with 50 μl of nuclease-free water. Complementary DNA was synthesized using the cDNA Reverse Transcription Kit (Applied Biosystems, Cat No. 4368814) and quantitative PCR was performed by using SYBR green (Applied Biosystems, Cat No. A46109). Relative quantification of gene expression was performed via 2^−ΔΔCT method.

mouse model of PIPN = assay: hot plate test of thermal hyperalgesia in mouse model of PIPN; format: in vivo, mice (C57BL/6J)
Source text: All animal protocols were approved by the Massachusetts General Hospital Institutional Animal Care and Use Committee. Animals were cared for in accordance with the guidelines established by the NIH and the International Association for the Study of Pain [16]. Male C57BL/6J mice (6-7 weeks old) were purchased from the Jackson Laboratory (Bar Harbor, ME, USA). The mice were housed in a 12-hour shift light-control environment from 7 am to […] with ad libitum access to food and water in our animal facility until the time of experiments.
Paclitaxel (Sigma-Aldrich) was dissolved with ethanol and cremophor (1:1) and diluted with normal saline (1:4). Peripheral neuropathy was induced in mice by intraperitoneal (i.p.) administration of 4 mg/kg paclitaxel every other day for a total of 4 injections (cumulative dose of 16 mg/kg), according to a previously described protocol. A stable, crystallized form of GSSSG was produced and provided by Kyowa Hakko Bio CO., LTD. […] The dose of GSSSG was determined based on pilot studies. […]
To assess hyperalgesia, the heat threshold was determined by the hot plate test. […] The test was repeated 2 times after 5 minutes interval by a blinded examiner, and the average time was calculated. The ratio of change from the baseline was calculated from the difference of the latency response time from the baseline divided by the baseline time. […]

[2] = tested on: MDA-MB-231 human breast cancer cells; assay: MDA-MB-231 live cell count by trypan blue exclusion assay; format: cell-based; conditions: 24 hours
Method: To examine whether co-administration of GSSSG affects anti-tumor effects of paclitaxel, we conducted experiments using MDA-MB-231, a human breast cancer cell line (HTB-26, ATCC). Cells were cultured in the medium of 90% RPMI1640 (Corning, Cat No. 10-040-CV), 10% FBS, and 1% penicillin/streptomycin. After being seeded into a 96-well plate at the density of 20,000/well and cultured overnight, they were exposed to different concentrations of paclitaxel (0.125 μM, 0.25 μM, 0.5 μM, 1 μM, and 2 μM) and incubated for 24 hours. Cell viability was evaluated by LDH Cytotoxicity Detection Kit (Roche, Cat No. 11644793001). Briefly, a plate was centrifuged at 250×g for 10 minutes. […] After mixing with assay enzyme for 30 minutes at 25° C., absorbance was measured at wavelength 492 nm to determine cell viability. Inhibitory effects of paclitaxel were calculated by half-maximal inhibitory concentration (IC50). […] After being stripped by 0.25% trypsin, live cells were counted under 0.04% trypan blue. Five wells were evaluated per group.
Sample sizes for behavior test were chosen based on a previous study. All values are expressed as mean±standard deviation (SD). The behavior test results were analyzed in the mixed effect model because the behavior was measured repeatedly over five times from the same mice, and individual differences at baseline were confirmed in the preliminary study. […]

SMILES | Nrf2 mRNA levels [1] | expression of GCLC [1] | expression of HO1 [1] | levels of NQO1 mRNA [1] | threshold for thermal hyperalgesia (hot plate test) (mouse model of PIPN; GSSSG 50 mg/kg/day oral in paclitaxel-treated mice) | number of alive MDA-MB-231 cells ([2]; 2 μM paclitaxel + 10 μM GSSSG) | thermal hyperalgesia (hot plate test) (mouse model of PIPN; paclitaxel 4 mg/kg i.p. every other day, 4 injections, 4 weeks, vs control) | number of alive MDA-MB-231 cells ([2]; 2 μM paclitaxel alone)
N[C@@H](CCC(=O)N[C@@H](CSSSC[C@H](NC(=O)CC[C@H](N)C(=O)O)C(=O)NCC(=O)O)C(=O)NCC(=O)O)C(=O)O [GSSSG, glutathione trisulfide] | increased Nrf2 mRNA levels | upregulated | upregulated | modestly increased | not altered | 48.3 % of control cells | – | –
CC(=O)O[C@H]1C(=O)[C@@]2(C)[C@H]([C@H](OC(=O)c3ccccc3)[C@]3(O)C[C@H](OC(=O)[C@H](O)[C@@H](NC(=O)c4ccccc4)c4ccccc4)C(C)=C1C3(C)C)[C@]1(OC(C)=O)CO[C@@H]1C[C@@H]2O [paclitaxel, Paclitaxel, reference compound] | increased Nrf2 mRNA levels | not paclitaxel alone | not paclitaxel alone | not paclitaxel alone | – | – | induced thermal hyperalgesia | 44.9 % of control cells
